In patent publication US5432200A, “Method for increasing urinary excretion of electrolytes” (priority 1993, dated 1995):
Structures can show the parent of a compound that is named as a salt.

Key:
[1] = Physiological effects: urinary composition in two patients, five phases of study (Example 8, Table 1); type: in vivo, human (patients); conditions: for Urinary Ca / Urinary pH / Urinary Oxalate / Urinary K / Urinary Mg / Urinary Na / Urinary Citrate: mean of two patients, tablets/d: KCl 7, K citrate 10, Mg citrate 2.5, K-Mg citrate 7; for Urinary pH: placebo 6.26; for Urinary Oxalate: placebo 27; for Urinary K: placebo 31; for Urinary Mg: placebo 64; for Urinary Na: placebo 95; for Urinary Citrate: placebo 498
[2] = human, in vivo, po
Protocol: (§1) The study was performed with three normal subjects.
(§2) The subject underwent three phases of study. […] Urine was collected at frequent intervals for 24 hours after oral ingestion of each salt (at 8 a.m.).
(§3) Potassium bioavailability from potassium magnesium citrate was compared with that of potassium citrate. At each time period, the difference in urinary potassium following ingestion of potassium magnesium citrate (containing 49 meq potassium) or potassium citrate (containing 50 meq potassium) from that obtained at a corresponding time period following taking magnesium citrate (no potassium; therefore serving as control).
(§4) Magnesium bioavailability from potassium magnesium citrate was compared with that of magnesium citrate.
(§5) Citrate bioavailability from potassium magnesium citrate was compared with that of potassium citrate and magnesium citrate.

[3] = in vivo; cited from earlier work
[4] = tested on: hypercalciuric nephrolithiasis; conditions: cited from earlier work
[5] = Bioavailability of potassium, magnesium and citrate in normal subjects: cumulative increment in urinary excretion after single oral dose (Example 7); conditions: urine 24 hours
Protocol: as §1, §2, §3, §4, §5

[6] = cited from earlier work
nephrolithiasis = conditions: cited from earlier work
[7] = hypercalciuric patients with nephrolithiasis treated with thiazide

O=C([O-])CC(O)(CC(=O)[O-])C(=O)[O-].O=C([O-])CC(O)(CC(=O)[O-])C(=O)[O-].[K+].[K+].[K+].[K+].[Mg+2] [potassium magnesium citrate, tetrapotassium monomagnesium dicitrate]
Urinary Ca [1]: 106 mg/day | Urinary pH [1]: 6.94 | Urinary Oxalate [1]: 23 mg/day | Urinary K [1]: 73 meq/d | Urinary Mg [1]: 116 mg/day | Urinary Na [1]: 92 meq/d | Urinary Citrate [1]: 968 mg/day | urinary pH and citrate compared to magnesium citrate ([1]; vs magnesium citrate): higher values for urinary pH and citrate | urinary calcium and oxalate compared to placebo ([1]; vs placebo): lower values for urinary calcium and oxalate | urinary pH, magnesium, potassium and citrate compared to placebo ([1]; vs placebo): higher values for urinary pH, magnesium, potassium and citrate | urinary pH, magnesium and citrate compared to potassium chloride ([1]; vs potassium chloride): higher urinary pH, magnesium, and citrate | citrate and magnesium excretion compared to potassium citrate ([1]; vs potassium citrate): greater citrate excretion as well as enhanced magnesium excretion | cumulative increment in urinary citrate (citrate bioavailability) [2]: much higher for potassium magnesium citrate than for the other two preparations

[Cl-].[K+] [potassium chloride]
Urinary Ca [1]: 103 mg/day | Urinary pH [1]: 5.84 | Urinary Oxalate [1]: 27 mg/day | Urinary K [1]: 90 meq/d | Urinary Mg [1]: 73 mg/day | Urinary Na [1]: 81 meq/d | Urinary Citrate [1]: 636 mg/day | side effects [3]: arrhythmia and diarrhea

O=C(O)CC(O)(CC(=O)O)C(=O)O [potassium citrate]
citrate excretion [4, 7]: augments citrate excretion | effect on thiazide-induced hypokalemia [4, 7]: averts the development of hypokalemia | recurrent stone formation ([4]; patients who have relapsed on thiazide therapy): prevents recurrent stone formation | effect on thiazide-induced magnesium depletion ([4]; potassium citrate therapy): does not avert thiazide-induced magnesium depletion | Urinary Ca ([1]; listed as Potassium Citrate): 86 mg/day | Urinary pH ([1]; listed as Potassium Citrate): 6.93 | Urinary Oxalate ([1]; listed as Potassium Citrate): 27 mg/day | Urinary K ([1]; listed as Potassium Citrate): 80 meq/d | Urinary Mg ([1]; listed as Potassium Citrate): 69 mg/day | Urinary Na ([1]; listed as Potassium Citrate): 91 meq/d | Urinary Citrate ([1]; listed as Potassium Citrate): 821 mg/day | cumulative increment in urinary potassium (potassium bioavailability) ([5]; 49 meq K (potassium magnesium citrate) vs 50 meq K (potassium citrate), magnesium citrate phase as control, FIG. 2): equivalent between the two preparations

O=C(O)CC(O)(CC(=O)O)C(=O)O [magnesium citrate]
Urinary Ca ([1]; listed as Magnesium Citrate): 137 mg/day | Urinary pH ([1]; listed as Magnesium Citrate): 6.13 | Urinary Oxalate ([1]; listed as Magnesium Citrate): 23 mg/day | Urinary K ([1]; listed as Magnesium Citrate): 38 meq/d | Urinary Mg ([1]; listed as Magnesium Citrate): 113 mg/day | Urinary Na ([1]; listed as Magnesium Citrate): 82 meq/d | Urinary Citrate ([1]; listed as Magnesium Citrate): 718 mg/day | cumulative increment in urinary magnesium (magnesium bioavailability or absorption) ([5]; 24.5 meq Mg (potassium magnesium citrate) vs 25 meq Mg (magnesium citrate), potassium citrate phase as control, FIG. 3): equivalent magnesium bioavailability between the two preparations | magnesiuric and citraturic effect compared with magnesium oxide ([6]; magnesium salts provided in small divided doses): equivalent magnesiuric and citraturic effect as magnesium oxide | absorbability compared with magnesium oxide ([6]; vs magnesium oxide): more soluble and absorbable than magnesium oxide

NS(=O)(=O)c1cc2c(cc1Cl)NCNS2(=O)=O [thiazide]
potassium and magnesium depletion (nephrolithiasis; thiazide therapy, by provoking renal loss of potassium and magnesium): may cause hypokalemia and magnesium depletion | relapse rate (nephrolithiasis; use of thiazide alone): 37.5-57.1%
